Results taken from ChEMBL document CHEMBL1152855, “Regioselective synthesis of dispiro[1H-indene-2,3'-pyrrolidine-2',3''-[3H]indole]-1,2''(1''H)-diones of potential anti-tumor properties” (2009).

What was measured:
OVCAR-3 = assay: Growth inhibition of human OVCAR-3 cells at 10 uM after 48 hrs by sulforhodamine B assay; format: functional; details: OVCAR-3, 48 h, values are per cent of control
UACC-62 = assay: Growth inhibition of human UACC62 cells at 10 uM after 48 hrs by sulforhodamine B assay; format: functional; details: UACC-62, 48 h, values are per cent of control
DU-145 = assay: Growth inhibition of human DU145 cells at 10 uM after 48 hrs by sulforhodamine B assay; format: functional; details: DU-145, 48 h, values are per cent of control
Malme-3M = assay: Growth inhibition of human MALME-3M cells at 10 uM after 48 hrs by sulforhodamine B assay; format: functional; details: values are per cent of control
MCF7 = assay: Growth inhibition of human MCF7 cells at 10 uM after 48 hrs by sulforhodamine B assay; format: functional; details: MCF7, 48 h, values are per cent of control
SK-OV-3 = assay: Growth inhibition of human SKOV3 cells at 10 uM after 48 hrs by sulforhodamine B assay; format: functional; details: SK-OV-3, 48 h, values are per cent of control
TK-10 = assay: Growth inhibition of human TK10 cells at 10 uM after 48 hrs by sulforhodamine B assay; values are per cent of control; details: TK-10, 48 h
NCI-H322M = assay: Growth inhibition of human NCI-H322M cells at 10 uM after 48 hrs by sulforhodamine B assay; format: functional; details: values are per cent of control
HCT-116 = assay: Growth inhibition of human HCT116 cells at 10 uM after 48 hrs by sulforhodamine B assay; format: functional; details: HCT-116, 48 h, values are per cent of control
RPMI-8226 = assay: Growth inhibition of human RPMI8226 cells at 10 uM after 48 hrs by sulforhodamine B assay; format: functional; details: RPMI-8226, 48 h, read-out: GI
Rattus norvegicus [1] = assay: Antiinflammatory activity against carrageenan-induced paw edema in Wister albino rat assessed as inhibition of edema at 50 mg/kg, ip administered 1 hr prior to carrageenan challenge measured after 4 hrs relative to indomethacin; format: functional; details: route intraperitoneal
UACC-257 = assay: Growth inhibition of human UACC257 cells at 10 uM after 48 hrs by sulforhodamine B assay; format: functional; details: UACC-257, 48 h, values are per cent of control
MDA-MB-435 = assay: Growth inhibition of human MDA-MB-435 cells at 10 uM after 48 hrs by sulforhodamine B assay; format: functional; details: MDA-MB-435, 48 h, values are per cent of control
HOP-62 = assay: Growth inhibition of human HOP62 cells at 10 uM after 48 hrs by sulforhodamine B assay; format: functional; details: HOP-62, 48 h, values are per cent of control
MDA-MB-231 = assay: Growth inhibition of human MDA-MB-231 cells at 10 uM after 48 hrs by sulforhodamine B assay; format: functional; details: MDA-MB-231, 48 h, values are per cent of control
Rattus norvegicus [2] = assay: Antiinflammatory activity against carrageenan-induced paw edema in Wister albino rat assessed as inhibition of edema at 50 mg/kg, ip administered 1 hr prior to carrageenan challenge measured after 1 hr relative to control; format: functional; details: route intraperitoneal
HCC 2998 = assay: Growth inhibition of human HCC2998 cells at 10 uM after 48 hrs by sulforhodamine B assay; format: functional; details: HCC 2998, 48 h, values are per cent of control
NCI-H226 = assay: Growth inhibition of human NCI-H226 cells at 10 uM after 48 hrs by sulforhodamine B assay; format: functional; details: NCI-H226, 48 h, values are per cent of control
SK-MEL-2 = assay: Growth inhibition of human SK-MEL-2 cells at 10 uM after 48 hrs by sulforhodamine B assay; format: functional; details: SK-MEL-2, 48 h, read-out: GI
NCI-H23 = assay: Growth inhibition of human NCI-H23 cells at 10 uM after 48 hrs by sulforhodamine B assay; format: functional; details: NCI-H23, 48 h, values are per cent of control
A498 = assay: Growth inhibition of human A498 cells at 10 uM after 48 hrs by sulforhodamine B assay; format: functional; details: A498, 48 h, values are per cent of control
[3] = Growth inhibition of human Hs 578T cells at 10 uM after 48 hrs by sulforhodamine B assay; format: functional; details: values are per cent of control
LOX IMVI = assay: Growth inhibition of human LOXIMVI cells at 10 uM after 48 hrs by sulforhodamine B assay; format: functional; details: values are per cent of control
786-0 = assay: Growth inhibition of human 786-0 cells at 10 uM after 48 hrs by sulforhodamine B assay; format: functional; details: 786-0, 48 h, values are per cent of control
Rattus norvegicus [4] = assay: Antiinflammatory activity against carrageenan-induced paw edema in Wister albino rat assessed as inhibition of edema at 50 mg/kg, ip administered 1 hr prior to carrageenan challenge measured after 2 hrs relative to control; format: functional; details: route intraperitoneal
EKVX = assay: Growth inhibition of human EKVX cells at 10 uM after 48 hrs by sulforhodamine B assay; format: functional; details: values are per cent of control
OVCAR-5 = assay: Growth inhibition of human OVCAR5 cells at 10 uM after 48 hrs by sulforhodamine B assay; format: functional; details: OVCAR-5, 48 h, values are per cent of control
HT-29 = assay: Growth inhibition of human HT-29 cells at 10 uM after 48 hrs by sulforhodamine B assay; format: functional; details: HT-29, 48 h, values are per cent of control
SNB-75 = assay: Growth inhibition of human SNB75 cells at 10 uM after 48 hrs by sulforhodamine B assay; format: functional; details: SNB-75, 48 h, values are per cent of control
MOLT-4 = assay: Growth inhibition of human MOLT4 cells at 10 uM after 48 hrs by sulforhodamine B assay; format: functional; details: MOLT-4, 48 h, values are per cent of control
BT-549 = assay: Growth inhibition of human BT549 cells at 10 uM after 48 hrs by sulforhodamine B assay; format: functional; details: BT-549, 48 h, values are per cent of control
SF-268 = assay: Growth inhibition of human SF268 cells at 10 uM after 48 hrs by sulforhodamine B assay; format: functional; details: SF-268, 48 h, values are per cent of control
HOP-92 = assay: Growth inhibition of human HOP92 cells at 10 uM after 48 hrs by sulforhodamine B assay; format: functional; details: HOP-92, 48 h, read-out: GI
CCRF-CEM = assay: Growth inhibition of human CCRF-CEM cells at 10 uM after 48 hrs by sulforhodamine B assay; format: functional; details: values are per cent of control
Rattus norvegicus [5] = assay: Antiinflammatory activity against carrageenan-induced paw edema in Wister albino rat assessed as inhibition of edema at 50 mg/kg, ip administered 1 hr prior to carrageenan challenge measured after 3 hrs relative to control; format: functional; details: route intraperitoneal
SK-MEL-28 = assay: Growth inhibition of human SK-MEL-28 cells at 10 uM after 48 hrs by sulforhodamine B assay; format: functional; details: SK-MEL-28, 48 h, values are per cent of control
OVCAR-8 = assay: Growth inhibition of human OVCAR8 cells at 10 uM after 48 hrs by sulforhodamine B assay; format: functional; details: OVCAR-8, 48 h, read-out: GI
PC-3 = assay: Growth inhibition of human PC3 cells at 10 uM after 48 hrs by sulforhodamine B assay; format: functional; details: PC-3, 48 h, values are per cent of control

Structure (SMILES)	growth, % of control at 10 µM (OVCAR-3) [%]	growth, % of control at 10 µM (UACC-62) [%]	growth, % of control at 10 µM (DU-145) [%]	growth, % of control at 10 µM (Malme-3M) [%]	growth, % of control at 10 µM (MCF7) [%]	growth, % of control at 10 µM (SK-OV-3) [%]	growth, % of control at 10 µM (TK-10) [%]	growth, % of control at 10 µM (NCI-H322M) [%]	growth, % of control at 10 µM (HCT-116) [%]	inhibition of growth at 10 µM (RPMI-8226) [%]	activity relative to indomethacin (Rattus norvegicus [1]) [%]	growth, % of control at 10 µM (UACC-257) [%]	growth, % of control at 10 µM (MDA-MB-435) [%]	growth, % of control at 10 µM (HOP-62) [%]	growth, % of control at 10 µM (MDA-MB-231) [%]	inhibition in vivo at 50 mg/kg (Rattus norvegicus [2]) [%]	growth, % of control at 10 µM (HCC 2998) [%]	growth, % of control at 10 µM (NCI-H226) [%]	inhibition of growth at 10 µM (SK-MEL-2) [%]	growth, % of control at 10 µM (NCI-H23) [%]	also measured
[3H]N1C(=O)[C@@]2(c3ccccc31)N(C)C[C@@H](c1cccs1)[C@@]21Cc2ccccc2C1=O	95.6	82	92	93.5	109	96.2	144	98.9	92.2	89.1	41	65	115	110	78.3	49.9	103	96.2	6.58	92	growth, % of control at 10 µM (A498): 102%; growth, % of control at 10 µM [3]: 69.8%; growth, % of control at 10 µM (LOX IMVI): 80%; growth, % of control at 10 µM (786-0): 111%; inhibition in vivo at 50 mg/kg (Rattus norvegicus [4]): 39.1%; growth, % of control at 10 µM (EKVX): 97.5%; growth, % of control at 10 µM (OVCAR-5): 98.8%; growth, % of control at 10 µM (HT-29): 99.6%; growth, % of control at 10 µM (SNB-75): 81%; growth, % of control at 10 µM (MOLT-4): 67.7%; growth, % of control at 10 µM (BT-549): 119%; growth, % of control at 10 µM (SF-268): 93.6%; inhibition of growth at 10 µM (HOP-92): 72.9%; growth, % of control at 10 µM (CCRF-CEM): 91.4%; inhibition in vivo at 50 mg/kg (Rattus norvegicus [5]): 32.6%; growth, % of control at 10 µM (SK-MEL-28): 117%; inhibition of growth at 10 µM (OVCAR-8): 60.2%; growth, % of control at 10 µM (PC-3): 73%
[3H]C([3H])([3H])N1C(=O)[C@@]2(c3ccccc31)N(C)C[C@@H](c1cccs1)[C@@]21Cc2ccccc2C1=O	100	75.3	121	123	103	103	149	89.3	108	87.9	27	52.6	111	99.9	84.3	33	104	85.7	-5.11	92	growth, % of control at 10 µM (A498): 103%; growth, % of control at 10 µM [3]: 21.1%; growth, % of control at 10 µM (LOX IMVI): 85.3%; growth, % of control at 10 µM (786-0): 106%; inhibition in vivo at 50 mg/kg (Rattus norvegicus [4]): 10.8%; growth, % of control at 10 µM (EKVX): 107%; growth, % of control at 10 µM (OVCAR-5): 102%; growth, % of control at 10 µM (HT-29): 97.5%; growth, % of control at 10 µM (SNB-75): 79%; growth, % of control at 10 µM (MOLT-4): 72.2%; growth, % of control at 10 µM (BT-549): 131%; growth, % of control at 10 µM (SF-268): 101%; inhibition of growth at 10 µM (HOP-92): 69.2%; growth, % of control at 10 µM (CCRF-CEM): 90.5%; inhibition in vivo at 50 mg/kg (Rattus norvegicus [5]): 9.1%; growth, % of control at 10 µM (SK-MEL-28): 105%; inhibition of growth at 10 µM (OVCAR-8): 64%; growth, % of control at 10 µM (PC-3): 70.3%
